Test results from patent publication US8653064B2, “Crystalline forms of sodium 4-{[9-chloro-7-(2-fluoro-6-methoxyphenyl)-5H-pyrimido[5,4-D][2]benzazepin-2-yl]amino}-2-methoxybenzoate” (Millennium Pharmaceuticals, Inc., priority 2010, dated 2014).

What was measured:
[1] = Solubility in water; assay type: physicochemical
[2] = Gravimetric vapor sorption (GVS); assay type: physicochemical; conditions: between 0-90% RH, 10% RH intervals, 25° C.

Which solubility in water [1] does the source give for `COc1cc(Nc2ncc3c(n2)-c2ccc(Cl)cc2C(c2c(F)cccc2OC)=NC3)ccc1C(=O)O` [Form 2, sodium 4-{[9-chloro-7-(2-fluoro-6-methoxyphenyl)-5H-pyrimido[5,4-d][2]benzazepin-2-yl]amino}-2-methoxybenzoate Form 2] here?
The solubility in water was “about 8 mg/mL”.

Which solubility in water [1] does the source give for `COc1cc(Nc2ncc3c(n2)-c2ccc(Cl)cc2C(c2c(F)cccc2OC)=NC3)ccc1C(=O)O` [Form 6, sodium 4-{[9-chloro-7-(2-fluoro-6-methoxyphenyl)-5H-pyrimido[5,4-d][2]benzazepin-2-yl]amino}-2-methoxybenzoate Form 6] here?
The solubility in water was “greater than 10 mg/mL”.

What about the “uptake (change in weight of the sample) in GVS” value [2] of the same compound?
Its value is 6%.

With `COc1cc(Nc2ncc3c(n2)-c2ccc(Cl)cc2C(c2c(F)cccc2OC)=NC3)ccc1C(=O)O` [Form 24, sodium 4-{[9-chloro-7-(2-fluoro-6-methoxyphenyl)-5H-pyrimido[5,4-d][2]benzazepin-2-yl]amino}-2-methoxybenzoate Form 24] as the compound, how does the solubility in water [1] read?
Its solubility in water is “about 8 mg/mL”.

With `COc1cc(Nc2ncc3c(n2)-c2ccc(Cl)cc2C(c2c(F)cccc2OC)=NC3)ccc1C(=O)O` [free acid, 4-{[9-chloro-7-(2-fluoro-6-methoxyphenyl)-5H-pyrimido[5,4-d][2]benzazepin-2-yl]amino}-2-methoxybenzoic acid] as the compound, how does the solubility in water [1] read?
The solubility in water was “about 10 μg/mL”.
